Assay results reported in PMC3690454, “14-3-3 Proteins Interact with a Hybrid Prenyl-Phosphorylation Motif to Inhibit G Proteins” (Cell, 2013).
Square brackets hold non-standard residues; d marks the D form. Peptide text beside a SMILES is read from it. * marks the point of attachment. Geranylgeranyl = CC(C)=CCC/C(C)=C/CC/C(C)=C/CC/C(C)=C/C*; Biotin = O=C1N[C@H]2[C@H](CS[C@H]2CCCCC(=O)*)N1; Farnesyl = CC(C)=CCC/C(C)=C/CC/C(C)=C/C*; pT = C[C@@H](OP(=O)(O)O)[C@H](N)C(=O)O; pS = N[C@@H](COP(=O)(O)O)C(=O)O; X1 = CC(C)=CCC/C(C)=C/C*; Ahx = NCCCCCC(=O)O; Prenyl = CC(C)=CC*

How the values were obtained:
Format in all cases: binding
14-3-3ζ [1] = biological target: T1, 14-3-3ζ (Homo sapiens, UniProt P63104); test: Biolayer interferometry (Octet RED96), immobilised biotinylated peptides, 14-3-3ζ in solution; details: for Kd: kinetic fit, peptide immobilised at 1 μg/ml, 25 mM Tris, 150 mM NaCl, 0.1% Tween-20, association 300 s, dissociation 300 s, NB = no binding; for Kd / koff / kon: typical experiment (n ≥ 3)
T1 construct: hexa-His; made in house; host or cells: E. coli BL21(DE3) Star
T1 sequence (P63104 1-245): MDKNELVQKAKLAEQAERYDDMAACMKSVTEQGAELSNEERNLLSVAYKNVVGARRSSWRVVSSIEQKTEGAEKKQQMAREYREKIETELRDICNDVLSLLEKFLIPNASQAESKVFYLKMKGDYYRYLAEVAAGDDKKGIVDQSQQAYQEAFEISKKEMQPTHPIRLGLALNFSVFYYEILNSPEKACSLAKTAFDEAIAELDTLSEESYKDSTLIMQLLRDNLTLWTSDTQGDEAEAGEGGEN
Protocol: (§1) Biolayer interferometry was carried out using an Octet RED96 instrument (ForteBio). Biotinylated peptides were immobilized on streptavadin-coated biosensors (ForteBio) at a concentration of 1 μg/ml in BI buffer (25 mM Tris, 150 mM NaCl, 0.1% Tween-20), for 300 s. The immobilization typically reached a response level of 2 nm. Association and dissociation curves were obtained through addition of a dilution series of 14-3-3ζ ([…]) for 300 s followed by dissociation in BI buffer for 300 s using the Octet acquisition software. The binding data were fitted using the Octet analysis software.

14-3-3ζ [2] = biological target: T1, 14-3-3ζ; test: Isothermal titration calorimetry of Rnd3 C-terminal peptides with 14-3-3ζ; details: ITC, 25°C, 50 mM Tris pH 7.5, 100 mM NaCl, 1 mM TCEP, one-site model; mean ± SD, n = 3
Protocol: ITC measurements were carried out using a VP-ITC200 instrument (GE Healthcare). The 14-3-3ζ domain (see Extended Experimental Procedures) was used at 50–60 μM in ITC buffer (50 mM Tris [pH 7.5]), 100 mM NaCl, 1 mM TCEP). Rnd3 C-terminal peptides were solubilized in ITC buffer and used at 500–600 μM. Titrations were carried out at 25°C in triplicate. Each titration was fitted to a simple one-site binding model using the Origin software provided with the instrument. Titrations with nonbinding peptides were carried out at 15°C and 25°C.
GST-14-3-3β protein was expressed as previously reported ([Yaffe et al., 1997]). A hexa-His-tagged version of 14-3-3ζ was expressed and purified essentially as previously reported ([Kostelecky et al., 2009]). In brief, the E. coli strain BL21(DE3) Star (Invitrogen) was transformed with the expression plasmid that was maintained by 34 μg/ml chloramphenicol. E. coli cells were grown to OD600nm of 0.7-0.8 in TB medium at 37°C and protein expression induced by 1 mM IPTG for 5 hr at 30°C. Pelleted cells were suspended in buffer A (25 mM Tris [pH 7.5], 100 mM NaCl, 1 mM EDTA, and 1 mM DTT) and disrupted by sonication. Insoluble material was cleared by high-speed centrifugation and the cleared lysate applied to a 5 ml HisTrap column using an AKTA system (GE Healthcare). The 14-3-3ζ protein was eluted with a linear gradient (0–500 mM) of Imidazole in buffer A. Finally, the protein was subjected to size-exclusion chromatography using a High-Load S200 pg column. As previously described, 14-3-3ζ eluted as a dimer with a molecular weight of ∼60 kDa. The final yield of 14-3-3ζ was 30–40 mg per liter of TB medium.

14-3-3δ = biological target: T2, 14-3-3δ (Homo sapiens, UniProt P63104); test: Biolayer interferometry (Octet Red96) of candidate protein C-terminal peptides, Table S5; details: for koff: typical experiment (n ≥ 3); for affinity for 14-3-3 (in words): compared with farnesylated or geranylgeranylated Rnd3 peptides
T2 construct: hexa-His; made in house; host or cells: E. coli BL21(DE3) Star
T2 sequence (P63104 1-245): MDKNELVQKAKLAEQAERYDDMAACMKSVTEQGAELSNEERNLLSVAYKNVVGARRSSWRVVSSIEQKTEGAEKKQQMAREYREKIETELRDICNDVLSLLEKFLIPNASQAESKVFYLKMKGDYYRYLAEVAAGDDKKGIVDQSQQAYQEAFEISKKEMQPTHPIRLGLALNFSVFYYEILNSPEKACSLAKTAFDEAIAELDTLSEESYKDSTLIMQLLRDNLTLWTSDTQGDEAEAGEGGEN
Protocol: as §1
Table S5. Interactions of C-Terminal Peptides from Candidate Proteins with 14-3-3, […]
The affinities of the indicated phosphorylated and geranylgeranylated peptides for 14-3-3δ were determined by biolayer interferometry using an Octet Red96 instrument. Data of a typical experiment (n ≥ 3) along with statistics of the fit (χ2, R2) are shown. Peptide sequences from the C-terminus of the indicated proteins (last 10 amino acids of the mature protein sequence, terminating with Cys of CAAX box) are shown in single letter amino acid code, with pS/pT denoting phosphorylated serine/threonine. The modifications added to the C-terminal Cys are indicated. GG, geranylgeranylated; KD, dissociation constant; kon, association rate constant; koff, dissocation rate constant.

Row | Compound | Kd (14-3-3ζ [1]) | koff (14-3-3ζ [1]) | kon (14-3-3ζ [1]) | Kd (14-3-3ζ [2]) | fold lower affinity for 14-3-3 compared to Rnd3 peptides with two, three and four isoprenyl groups (14-3-3ζ [1]) | koff (14-3-3δ) | affinity for 14-3-3 (in words) (14-3-3δ)
1 | CC(C)=CCC/C(C)=C/CC/C(C)=C/CSC[C@H](NC(=O)[C@H](COP(=O)(O)O)NC(=O)[C@H](CCCCN)NC(=O)[C@H](C)NC(=O)[C@H](CCCCN)NC(=O)[C@H](CC(=O)O)NC(=O)[C@H](CCCCN)NC(=O)[C@H](CCCNC(=N)N)NC(=O)[C@H](CC(C)C)NC(=O)[C@@H](N)CC(=O)O)C(=O)O [+P+F] (H-DLRKDKAK[pS]C(Farnesyl)-OH) | 0.0324 µM | 0.028 s⁻¹ | 860000 M⁻¹ s⁻¹ | 0.069 ± 0.025 µM |  |  | 
2 | CC(C)=CCC/C(C)=C/CC/C(C)=C/CC/C(C)=C/CSC[C@H](NC(=O)[C@H](COP(=O)(O)O)NC(=O)[C@H](CCCCN)NC(=O)[C@H](C)NC(=O)[C@H](CCCCN)NC(=O)[C@H](CC(=O)O)NC(=O)[C@H](CCCCN)NC(=O)[C@H](CCCNC(=N)N)NC(=O)[C@H](CC(C)C)NC(=O)[C@H](CC(=O)O)NC(=O)CCCCCNC(=O)CCCC[C@@H]1SC[C@@H]2NC(=O)N[C@@H]21)C(=O)O [+P+GG] ({Biotin-Ahx}-DLRKDKAK[pS]C(Geranylgeranyl)-OH) | 0.0232 µM | 0.021 s⁻¹ | 890000 M⁻¹ s⁻¹ |  |  |  | 
3 | CC(C)=CCC/C(C)=C/CSC[C@H](NC(=O)[C@H](COP(=O)(O)O)NC(=O)[C@H](CCCCN)NC(=O)[C@H](C)NC(=O)[C@H](CCCCN)NC(=O)[C@H](CC(=O)O)NC(=O)[C@H](CCCCN)NC(=O)[C@H](CCCNC(=N)N)NC(=O)[C@H](CC(C)C)NC(=O)[C@H](CC(=O)O)NC(=O)CCCCCNC(=O)CCCC[C@@H]1SC[C@@H]2NC(=O)N[C@@H]21)C(=O)O [+P+G] ({Biotin-Ahx}-DLRKDKAK[pS]C(X1)-OH) | 0.0565 µM | 0.032 s⁻¹ | 570000 M⁻¹ s⁻¹ |  |  |  | 
4 | CC(C)=CCSC[C@H](NC(=O)[C@H](COP(=O)(O)O)NC(=O)[C@H](CCCCN)NC(=O)[C@H](C)NC(=O)[C@H](CCCCN)NC(=O)[C@H](CC(=O)O)NC(=O)[C@H](CCCCN)NC(=O)[C@H](CCCNC(=N)N)NC(=O)[C@H](CC(C)C)NC(=O)[C@H](CC(=O)O)NC(=O)CCCCCNC(=O)CCCC[C@@H]1SC[C@@H]2NC(=O)N[C@@H]21)C(=O)O [+P+Ipr] ({Biotin-Ahx}-DLRKDKAK[pS]C(Prenyl)-OH) | 0.556 µM | 0.13 s⁻¹ | 240000 M⁻¹ s⁻¹ |  | approximately 10 fold |  | 
5 | CC(C)=CCC/C(C)=C/CC/C(C)=C/CC/C(C)=C/CSC[C@H](NC(=O)[C@@H](NC(=O)[C@H](CCCCN)NC(=O)[C@H](CO)NC(=O)[C@H](CCCCN)NC(=O)[C@H](CCCCN)NC(=O)[C@H](CC(=O)O)NC(=O)[C@H](CC(=O)O)NC(=O)CNC(=O)CNC(=O)CCCCCNC(=O)CCCC[C@@H]1SC[C@@H]2NC(=O)N[C@@H]21)[C@@H](C)OP(=O)(O)O)C(=O)O [PDE6C] ({Biotin-Ahx}-GGDDKKSK[pT]C(Geranylgeranyl)-OH) |  |  |  |  |  | 0.018 s⁻¹ | 
6 | CC(C)=CCC/C(C)=C/CC/C(C)=C/CC/C(C)=C/CSC[C@H](NC(=O)[C@H](COP(=O)(O)O)NC(=O)[C@H](CCCCN)NC(=O)[C@H](CO)NC(=O)[C@H](CCCNC(=N)N)NC(=O)[C@H](CCCNC(=N)N)NC(=O)[C@H](CCC(=O)O)NC(=O)[C@@H](NC(=O)[C@H](CC(N)=O)NC(=O)[C@@H](NC(=O)CCCCCNC(=O)CCCC[C@@H]1SC[C@@H]2NC(=O)N[C@@H]21)[C@@H](C)O)[C@@H](C)O)C(=O)O [RPRG] ({Biotin-Ahx}-TNTERRSK[pS]C(Geranylgeranyl)-OH) |  |  |  |  |  | 0.022 s⁻¹ | intermediate affinity
7 | CC(C)=CCC/C(C)=C/CC/C(C)=C/CC/C(C)=C/CSC[C@H](NC(=O)[C@H](COP(=O)(O)O)NC(=O)[C@H](CO)NC(=O)[C@H](CCCCN)NC(=O)[C@H](CCCCN)NC(=O)[C@H](CCCNC(=N)N)NC(=O)[C@H](C)NC(=O)[C@H](CCCCN)NC(=O)CNC(=O)[C@@H]1CCCN1C(=O)CCCCCNC(=O)CCCC[C@@H]1SC[C@@H]2NC(=O)N[C@@H]21)C(=O)O [Rap1B] ({Biotin-Ahx}-PGKARKKS[pS]C(Geranylgeranyl)-OH) |  |  |  |  |  | 0.055 s⁻¹ | lower affinity
8 | CC[C@H](C)[C@H](NC(=O)[C@@H]1CCCN1C(=O)[C@@H](NC(=O)[C@@H]1CCCN1C(=O)CCCCCNC(=O)CCCC[C@@H]1SC[C@@H]2NC(=O)N[C@@H]21)[C@@H](C)O)C(=O)N[C@@H](CCCCN)C(=O)N[C@@H](CCCNC(=N)N)C(=O)NCC(=O)N[C@@H](CCCNC(=N)N)C(=O)N[C@@H](COP(=O)(O)O)C(=O)N[C@@H](CSC/C=C(\C)CC/C=C(\C)CC/C=C(\C)CCC=C(C)C)C(=O)O [RhoG] ({Biotin-Ahx}-PTPIKRGR[pS]C(Geranylgeranyl)-OH) |  |  |  |  |  | 0.035 s⁻¹ | lower affinity
